Patent publication EP4285989A1 (priority 2021, dated 2022)

Columns and labels:
Assay type in all cases: cell-based
[1] = tested on: Clostridium butyricum M-II588; conditions: 1 w/v% carbohydrate, anaerobic, 37°C; for hydrogen generation (hydrogen production amount): 24 hours, calculated from increased amount of gas × hydrogen concentration (FIG. 6); for increased amount of gas: preculture 5 v/v%, 24 hours (FIG. 5)
[2] = tested on: Clostridium butyricum M-II588; conditions: 1 w/v% carbohydrate, sugar-free medium, anaerobic, 37°C, 20 hours; compared to other carbohydrates (FIG. 1)
[3] = tested on: Clostridium butyricum M-II588; conditions: 1 w/v% carbohydrate, anaerobic, 37°C, 20 hours
[4] = tested on: Staphylococcus aureus IFO 12732; test: Anti-bacterial action: Staphylococcus aureus count in (co-)culture, dilution plate technique; conditions: 20 hours, 37°C, anaerobic; 0.5 w/v% α-CD; butyric acid bacteria 9.4×10^6 CFU/mL; S. aureus 7.5×10^2 CFU/mL (FIG. 4)
Experimental: Culture of Staphylococcus aureus alone, Staphylococcus aureus and 0.5 w/v% α-CD in coexistence, Staphylococcus aureus and butyric acid bacteria in coexistence, or Staphylococcus aureus and butyric acid bacteria in coexistence with 0.5 w/v% α-CD added was performed at 37°C under an anaerobic condition, and the number of Staphylococcus aureus was counted 20 hours after the start of culture. The amount of Staphylococcus aureus added was 7.5×10^2 CFU/mL as the final concentration, and the amount of butyric acid bacteria added was 9.4×10^6 CFU/mL as the final concentration. The number of Staphylococcus aureus was measured by the dilution plate technique, that is, spreading a moderately diluted culture solution on an agar medium, culturing it at 37°C under an aerobic condition, and counting the number of colonies formed. The test results are shown as mean ± standard error of three samples.

| Compound | hydrogen generation (hydrogen production amount) [1] | increased amount of gas [1] | proliferation of butyric acid bacteria (turbidity change (ΔOD) at 660 nm) [2] | production of butyric acid ([3]; compared to other carbohydrates (FIG. 2)) | production of acetic acid ([3]; compared to other carbohydrates (FIG. 3)) | proliferation of Staphylococcus aureus (number of Staphylococcus aureus) [4] |
| --- | --- | --- | --- | --- | --- | --- |
| OC[C@H]1O[C@@H](O[C@H]2[C@H](O)[C@@H](O)[C@@H](O[C@]3(CO)O[C@H](CO)[C@@H](O)[C@@H]3O)O[C@@H]2CO)[C@H](O)[C@@H](O)[C@H]1O [LS, Lactosucrose, reference compound] | very little | very little |  |  |  |  |
| α-cyclodextrin [α-CD] | hydrogen was generated | significantly increased | significantly promoted | significantly promoted | significantly promoted | almost no proliferation inhibiting effect |
